Measurements: patent publication US20240294499A1, “TARGETED PROTEIN DEGRADATION USING BIFUNCTIONAL COMPOUNDS THAT BIND UBIQUITIN LIGASE AND TARGET MCL-1 PROTEIN” (Captor Therapeutics S.A., priority 2021, published 2024)

Tests used:
iCELL Cardiomyocytes = assay: Cardiac safety: caspase 3 and 7 activation (Caspase-Glo 3/7) in iCELL Cardiomyocytes; assay type: cell-based; settings: for Fold change at 1.2 uM (caspase 3/7 activity in cardiomyocytes): 24 hours incubation, vs DMSO; for activity in caspase activity assay in cardiomyocytes: as opposed to reference compound AZD5991
Excerpt: The effect of various compounds of the invention and a reference compound AZD5991 on cardiac safety was investigated by the evaluation of caspase 3 and 7 activation using Caspase-Glo 3/7 Assay (Promega; G8092) in iCELL™ Cardiomyocytes from FUJIFILM Cellular Dynamics (Catalog number: 11713). In the Caspase-Glo® 3/7 Assay, the luminescence (measured as Relative Luciferase Units, RLU) is proportional to the amount of caspase activity present in each sample.
The assay is initiated by thawing and seeding iCell® Cardiomyocytes as specified in the User Guide. After 48 hours, the cells are washed to remove unattached cells and debris and immediately treated with compounds or DMSO diluted in the maintenance medium (FCDI; cat: M1003). Compound concentrations used in this assay: 7 points 1/3 dilution curve starting at 100 uM. After 24 hours of incubation with compounds, caspase activity is measured by the addition of the Caspase-Glo® 3/7 Reagent followed by the luminescence measurement.
The analysis of the results is performed by calculation of the fold change in caspase 3/7 activity at a given compound concentration. Fold change is calculated with the formula: […]
where: • RLU Xi is the Relative Luciferase Units of sample I; • RLU BG is the Background Relative Luciferase Units; • RLU C is the Relative Luciferase Units of Control (DMSO).
The experiments were performed in technical duplicates.

[1] = test system: hiPSC-CM (iCELL Cardiomyocytes); assay: Cardiac safety: hiPSC-CM cell viability assay (CTG); assay type: cell-based, human; settings: viability, CTG assay, treatment until day 14
Excerpt: The effect of various compounds of the invention and a reference compounds AZD5991 and MIK665 on cardiac safety was investigated by the evaluation of viability with CTG assay (Promega; cat #G7572) in iCELL™ Cardiomyocytes from FUJIFILM Cellular Dynamics (Catalog number: 11713).
Cells were thawed, counted using an automated cell counter (TC20, Bio-Rad) and seeded in 96 well plates (Greiner-BioOne; 655098) previously coated with 0.1% gelatin (Sigma-Aldrich; G1890) using Plating Medium (#M1001) following the instructions of the iCELL cardiomyocytes User Guide. Forty ml of Plating Medium was used to equally distribute the cells in four 96 well plates. Cells were then placed in the incubator at 37° C., 5% CO2 and left undisturbed for 48 hours. Compounds were serially diluted in DMSO and then further diluted to final assay concentration using maintenance medium (#M1003). Final DMSO concentration was 0.5%. Forty eight hours after plating, non-adherent cells and debris were washed as described in the User Guide. Plating medium was then replaced with maintenance medium containing diluted compounds or DMSO (as control). Medium was then changed every 2 days with fresh medium containing compounds or DMSO until the end of the treatment. On day 14, only medium without compounds was used immediately before the CTG assay. Luminescence signal was measured using a CLARIOstar Plus Multi-Mode Microplate Reader (574-590 nm).

[2] = test system: iPSC-derived cardiomyocytes (iPSC-CMs); assay: caspase 3/7 activity in iPSC-derived cardiomyocytes; assay type: cell-based; settings: 100 μM, FIG. 5
MCL-1 protein [3] = molecular target: T1, MCL-1 protein (Homo sapiens, UniProt Q07820); assay: OPM-2 cells: MCL-1 protein degradation, Western blot; assay type: cell-based; parameters: endogenous in cells; host or cells: OPM-2; settings: OPM-2 cell line, 6 h treatment, 100 nM compound, vs DMSO
T1 sequence (Q07820 whole entry): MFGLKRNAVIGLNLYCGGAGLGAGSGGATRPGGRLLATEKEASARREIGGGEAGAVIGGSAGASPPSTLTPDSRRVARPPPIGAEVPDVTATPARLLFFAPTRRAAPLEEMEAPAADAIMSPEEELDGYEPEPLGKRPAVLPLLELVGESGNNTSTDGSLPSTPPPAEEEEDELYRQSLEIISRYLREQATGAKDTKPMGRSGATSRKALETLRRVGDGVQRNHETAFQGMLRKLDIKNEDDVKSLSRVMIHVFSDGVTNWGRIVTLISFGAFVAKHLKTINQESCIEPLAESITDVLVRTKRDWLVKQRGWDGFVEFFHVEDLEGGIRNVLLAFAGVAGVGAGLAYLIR
Excerpt: The effect of various compounds of the invention and the reference compounds on MCL-1 protein degradation in the OPM-2 cell line was investigated, using the degradation assay protocol below.
(§1) OPM-2 cells were maintained in RPMI-1640 medium, supplemented with penicillin/streptomycin and 10% Fetal Bovine Serum (FBS). During the treatment, FBS concentration was reduced to 1%.
(§2) Compound stocks were pre-diluted in DMSO and added directly to the cells growth medium (final DMSO concentration: 0.5%).
(§3) OPM-2 cells were collected, centrifuged (250 rcf, 5 min), resuspended in a growth medium containing 1% FBS and counted. The cell suspension was then adjusted to 1×10^6 cell/ml using a growth medium containing 1% FBS. Afterwards, 0.5×10^6 cells were seeded on 24-well plates in 0.5 mL of medium per well. Immediately after seeding cells, compounds in appropriate concentrations were added to the cell culture medium.
Following the treatment with the compounds, cells were collected from the plates and suspended in a lysis buffer (2% SDS, 50 mM Tris, pH 8.0, 100 U/ml Pierce Universal Nuclease for Cell Lysis, complete EDTA-free Protease Inhibitor Cocktail) and incubated on ice for 45 min. The amount of protein was determined via BCA assay, and the equal quantity of each sample was loaded on the precast gel for the protein separation. Following the electrophoresis and transfer to the membrane, the membrane was stained with Ponceau (0.1% (w/v) Ponceau in 5% acetic acid). After total protein detection, the stain was washed out using TBST. After the antibody staining for MCL-1 and α-tubulin, the membranes were washed and signals developed.
Densitometric values for MCL-1 were normalized to total protein level (the Ponceau Staining). [%] of protein reduction is calculated in comparison to the cells treated with DMSO, which stand for 0%.
The results for the 6 h treatment with 100 nM compounds are shown in Table 9, using the following labels: • <30% for 0-29% of MCL-1 protein reduction, • ≥30% for 30-49% of MCL-1 protein reduction, • ≥50% for 50-100% of MCL-1 protein reduction.

[4] = molecular target: [MCL-1]-[compound of formula (I)]-[CRBN/DDB1] complex (Homo sapiens, UniProt Q07820+Q96SW2); assay: AlphaLISA dose response ternary complex formation assay; assay type: binding; settings: read-out: AlphaLISA dose response Average pEC50 by molecule (converted)
[MCL-1]-[compound of formula (I)]-[CRBN/DDB1] complex, sequence (Q07820 whole entry): as above
[MCL-1]-[compound of formula (I)]-[CRBN/DDB1] complex, sequence (Q96SW2 whole entry): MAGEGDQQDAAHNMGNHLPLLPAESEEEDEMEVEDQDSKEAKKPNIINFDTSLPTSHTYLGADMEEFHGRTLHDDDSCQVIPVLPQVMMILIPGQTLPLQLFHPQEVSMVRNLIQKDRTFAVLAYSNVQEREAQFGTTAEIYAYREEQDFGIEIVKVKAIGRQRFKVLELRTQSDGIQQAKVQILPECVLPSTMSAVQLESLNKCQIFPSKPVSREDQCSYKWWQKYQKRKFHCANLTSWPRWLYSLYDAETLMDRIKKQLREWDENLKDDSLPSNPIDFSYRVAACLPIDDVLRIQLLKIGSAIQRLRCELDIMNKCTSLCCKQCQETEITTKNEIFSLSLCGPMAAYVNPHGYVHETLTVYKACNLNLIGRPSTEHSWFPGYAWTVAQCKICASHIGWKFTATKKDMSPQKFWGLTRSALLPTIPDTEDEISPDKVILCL
[MCL-1]-[compound of formula (I)]-[CRBN/DDB1] complex, sequence (Q16531 whole entry partner): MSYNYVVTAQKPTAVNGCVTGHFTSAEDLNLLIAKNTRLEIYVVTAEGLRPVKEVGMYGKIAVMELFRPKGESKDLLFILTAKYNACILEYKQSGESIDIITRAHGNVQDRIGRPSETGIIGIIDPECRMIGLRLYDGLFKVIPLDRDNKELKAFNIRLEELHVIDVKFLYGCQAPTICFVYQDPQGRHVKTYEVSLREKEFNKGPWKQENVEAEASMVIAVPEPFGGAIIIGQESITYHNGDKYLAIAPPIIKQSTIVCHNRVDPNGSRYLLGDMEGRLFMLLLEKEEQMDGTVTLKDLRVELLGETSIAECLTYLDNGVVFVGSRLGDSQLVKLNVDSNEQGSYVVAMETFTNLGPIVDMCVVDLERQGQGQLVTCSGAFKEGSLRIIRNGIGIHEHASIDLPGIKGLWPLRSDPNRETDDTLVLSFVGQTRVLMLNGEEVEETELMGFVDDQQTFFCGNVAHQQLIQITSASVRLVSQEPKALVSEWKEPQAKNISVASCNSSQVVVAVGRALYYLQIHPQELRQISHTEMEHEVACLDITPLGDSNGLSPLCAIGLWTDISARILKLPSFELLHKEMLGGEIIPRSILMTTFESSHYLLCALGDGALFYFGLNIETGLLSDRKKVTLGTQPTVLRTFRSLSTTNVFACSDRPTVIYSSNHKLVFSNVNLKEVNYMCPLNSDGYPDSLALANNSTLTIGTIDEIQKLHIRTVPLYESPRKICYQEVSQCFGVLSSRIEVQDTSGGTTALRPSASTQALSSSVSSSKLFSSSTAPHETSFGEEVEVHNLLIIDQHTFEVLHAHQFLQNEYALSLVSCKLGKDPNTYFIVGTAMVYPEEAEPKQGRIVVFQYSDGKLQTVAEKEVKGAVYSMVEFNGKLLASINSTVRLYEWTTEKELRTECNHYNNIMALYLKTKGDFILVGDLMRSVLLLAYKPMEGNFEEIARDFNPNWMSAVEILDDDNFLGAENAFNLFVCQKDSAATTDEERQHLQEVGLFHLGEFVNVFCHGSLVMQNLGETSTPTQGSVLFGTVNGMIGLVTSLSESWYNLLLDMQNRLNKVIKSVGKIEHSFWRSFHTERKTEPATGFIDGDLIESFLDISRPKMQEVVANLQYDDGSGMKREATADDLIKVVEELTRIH
In short: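 EC50 comes from dose–response of AlphaLISA luminescence (excitation 680, emission 615 nm), normalised between DMSO background and an internal positive control, with concentrations past the hook point dropped. Ternary complex formed by mixing bead-bound biotin-hMCL-1 and His-CRBN/DDB1 (protein solutions 40 and 200 nM) with compound in 2% DMSO, 30 min, 25 °C.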

MV-4-11 cells = assay: Cell viability assay (CellTiter-Glo), MV-4-11; assay type: cell-based; settings: Homo sapiens, MV4-11, 24 hours incubation, 1% FBS, read-out: Average pIC50 by molecule MV-4-11 (converted)
In short: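 Luminescent ATP readout (CellTiter-Glo) at 24 hours measured viability, expressed relative to DMSO-treated wells. Compound was added directly to the medium as a 9–12-point threefold series starting at 30 uM, at 0.5% final DMSO. The medium contained FBS reduced to 1%.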

OPM-2 cells = assay: Cell viability assay (CellTiter-Glo), OPM-2; assay type: cell-based; settings: Homo sapiens, 24 hours incubation, 1% FBS, read-out: Average pIC50 by molecule OPM-2 (converted)
Excerpt: The effect of various compounds of the invention on the viability of OPM-2, MV-4-11 and ARH-77 cell lines was investigated, using the CTG protocol described below.
OPM-2 and MV-4-11 cell lines are derived from multiple myeloma and acute myeloid leukaemia, respectively. Both cell lines are described in the literature as MCL-1 dependent lines, as opposed to lymphoblast-like ARH-77 cell line, which is described as independent of MCL-1 (Tron A E et al. Nat Commun. 2018; 9: 5341; Caenepeel S et al. Cancer Discov. 2018 December; 8(12):1582-1597).
Cells (OPM-2, MV-4-11 or ARH-77) were seeded on […] in a growth medium with FBS reduced to 1%. Next, compound stocks were pre-diluted in DMSO and added directly to the cells growth medium (final DMSO concentration: 0.5%). Compound concentrations used in this assay: 1/3 dilutions starting at 30 uM (9 to 12 points).
After 24 hours of incubation, cell viability was evaluated using CellTiter-Glo Luminescent Cell Viability Assay (Promega, cat #G7572). Luminescence signal was measured using a CLARIOstar Plus Multi-Mode Microplate Reader (574-590 nm).
Results were normalized to DMSO control.

MCL-1 protein [5] = molecular target: T1, MCL-1 protein; assay: OPM-2 cells: MCL-1 protein degradation, Simple Western; assay type: cell-based; parameters: endogenous in cells; host or cells: OPM-2; settings: OPM-2 cell line, 6 h treatment, 100 nM compound, vs DMSO
Excerpt: The effect of various compounds of the invention and the reference compounds on MCL-1protein degradation in the OPM-2 cell line was investigated, using the degradation assay protocol below.
as §1, §2, §3
Following the treatment with the compounds, cells were collected from the plates and suspended in a lysis buffer (2% SDS, 50 mM Tris, pH 8.0, 100 U/ml Pierce Universal Nuclease for Cell Lysis, cOmplete EDTA-free Protease Inhibitor Cocktail) and incubated on ice for 45 min.
The following steps, including sample loading, protein separation, immunoprobing or labelling, washes and detection analysis was performed using Jess from ProteinSimple, an automatic system for analyzing protein levels in cell lysates (12-230 kDa Jess or Wes separation module 8×25 capillaries, protein normalization assay, no. SM-PN01-1). The Protein of Interest was detected using MCL-1 (D35A5) Rabbit monoclonal antibody (Cell Signaling, #5453, LOT: 4). Antibody was diluted in a ratio of 1:100 in Antibody diluent.
[%] of protein reduction is calculated in comparison to the cells treated with DMSO, which stand for 0%.
The results for the 6 h treatment with 100 nM compounds are shown in Table 9, using the following labels: • <20% for 0-19% of MCL-1 protein reduction, • ≥20% for 20-39% of MCL-1 protein reduction, • ≥40% for 40-100% of MCL-1 protein reduction.

Row | Western blot, % of protein reduction (MCL-1 protein [3]) [%] | EC50 [4] [nM] | IC50 (MV-4-11 cells) [nM] | Simple Western, % of protein reduction (MCL-1 protein [5]) [%] | Compound | Fold change at 1.2 uM (caspase 3/7 activity in cardiomyocytes) (iCELL Cardiomyocytes) | IC50 ([1]; Homo sapiens, Cardiomyocyte, 336 h, read-out: Average pIC50 by molecule hiPSC-CM (converted)) [nM] | cell death in iPSC-CMs (caspase 3/7 assay, concentration point not displayed) [2] | activity in caspase activity assay in cardiomyocytes (iCELL Cardiomyocytes) | IC50 (OPM-2 cells) [nM] | Average pIC50 by molecule hiPSC-CM [1]
1 | ≥50 | < 100 | ≤ 100 | ≥40 | Cc1nn(C)c(C)c1-c1c(Cl)ccc2c(CCCOc3cccc4ccccc34)c(C(=O)O)n(CCN3CCN(C(=O)COc4cccc5c4CN(C4CCC(=O)NC4=O)C5=O)CC3)c12 (stereo not drawn) [Compound 206, 6-chloro-1-(2-(4-(2-((2-(2,6-dioxopiperidin-3-yl)-1-oxoisoindolin-4-yl)oxy)acetyl)piperazin-1-yl)ethyl)-3-(3-(naphthalen-1-yloxy)propyl)-7-(1,3,5-trimethyl-1H-pyrazol-4-yl)-1H-indole-2-carboxylic acid] | ≤1.5 ± 0.2 | – | – | little to no activity | ≤ 316 | –
2 | ≥50 | < 10 | ≤ 100 | ≥40 | Cc1nn(C)c(C)c1-c1c(Cl)ccc2c(CCCOc3cccc4cc(F)ccc34)c(C(=O)O)n(CCN3CCN(C(=O)COc4cccc5c4C(=O)N(C4CCC(=O)NC4=O)C5=O)CC3)c12 (stereo not drawn) [Compound 214, 6-chloro-1-{2-[4-(2-{(2-(2,6-dioxopiperidin-3-yl)-1,3-dioxo-2,3-dihydro-1H-isoindol-4-yl]oxy}acetyl)piperazin-1-yl]ethyl}-3-{3-[(6-fluoronaphthalen-1-yl)oxy]propyl}-7-(1,3,5-trimethyl-1H-pyrazol-4-yl)-1H-indole-2-carboxylic acid] | ≤1.5 ± 0.2 | – | – | little to no activity | ≤ 316 | –
3 | – | < 100 | ≤ 100 | ≥40 | Cc1nn(C)c(C)c1-c1c(Cl)ccc2c(CCCOc3cccc4ccccc34)c(C(=O)O)n(CCN3CCN(C(=O)Cn4c(C)nc5c(C(=O)NC6CCC(=O)NC6=O)cccc54)CC3)c12 (stereo not drawn) [Compound 266, 6-chloro-1-{2-[4-(2-{4-[(2,6-dioxopiperidin-3-yl)carbamoyl]-2-methyl-1H-1,3-benzodiazol-1-yl}acetyl)piperazin-1-yl]ethyl}-3-[3-(naphthalen-1-yloxy)propyl]-7-(1,3,5-trimethyl-1H-pyrazol-4-yl)-1H-indole-2-carboxylic acid] | ≤1.5 ± 0.2 | – | – | little to no activity | ≤ 316 | –

More lines, now with the values behind:

Row | Compound | Western blot, % of protein reduction (MCL-1 protein [3]) [%] | EC50 [4] [nM] | IC50 (MV-4-11 cells) [nM] | Simple Western, % of protein reduction (MCL-1 protein [5]) [%] | Fold change at 1.2 uM (caspase 3/7 activity in cardiomyocytes) (iCELL Cardiomyocytes) | IC50 ([1]; Homo sapiens, Cardiomyocyte, 336 h, read-out: Average pIC50 by molecule hiPSC-CM (converted)) [nM] | cell death in iPSC-CMs (caspase 3/7 assay, concentration point not displayed) [2] | activity in caspase activity assay in cardiomyocytes (iCELL Cardiomyocytes) | IC50 (OPM-2 cells) [nM] | Average pIC50 by molecule hiPSC-CM [1]
4 | Cc1c2c(nn1C)CSCc1cc(n(C)n1)CSc1cc(c3ccccc3c1)OCCCc1c(C(=O)O)n(C)c3c-2c(Cl)ccc13 [AZD5991, reference compound] | – | – | – | – | 2.9 ± 0.5 | 631 | – | – | – | –
5 | Cc1c2c(nn1C)CSCc1cc(n(C)n1)CSc1cc(c3ccccc3c1)OCCCc1c(C(=O)O)n(C)c3c-2c(Cl)ccc13 [AZD-5991] | – | – | – | – | – | – | excessive cell death | – | – | –
6 | MIK665 [reference compound] | – | – | – | – | – | – | – | – | – | 6.9
